According to EP1764363A2, “Substituted acetophenonederivatives” (Riemser Arzneimittel AG, priority 2005, dated 2007):
Values after ≈ are worked out from the molar mass of the structure shown.

What was measured:
S. aureus = assay: Minimal inhibitory concentration (MHK), microtitre plate, TTC staining; assay type: cell-based; conditions: 48h, 36°C
DU 145 = assay: Chemosensitivity test (modified MTT test EZ4U); conditions: Homo sapiens, DU-145, 96 h, read-out: IC50-Werte
Text: (§1) Die Verbindungen wurden in Dimethylsulfoxid (DMSO) als konzentrierte Stammlösungen (100-400fach) gelöst und für Proliferationstests in Zellkulturmedium verdünnt.
(§2) Mit Ausnahme von SIM, KAL Ewingsarkom (in Wien etabliert) und LAN Neuroblastom (University of Los Angeles) wurden die Zell-Linien von der American Type Culture Collection (ATCC, Rockville, MD) bezogen und zum Erhalt von konfluenten Monolayerkulturen in RPMI-1640 Bikarbonatmedium (Seromed, Berlin, Deutschland) in einem Zellkulturschrank (5% CO2, 37°C) kultiviert. Mit der Ausnahme der murinen NlH3T3 Fibroblasten sind alle verwendeten Zell-Linien humanen Ursprungs. Die Zellen wurden auf Verunreinigung durch Mycoplasmen untersucht. Das Medium wurde mit 10% hitzeinaktiviertem foetalem Kälberserum (Seromed) and 4 mM Glutamin ergänzt. Die Zellen wurden durch Trypsinierung subkultiviert (0.03% Trypsin enthaltend 0.02% EDTA, dreimal pro Woche). Die Trypsinierung wurde durch Verwendung vom komplettem Zellkulturmedium gestoppt. Die Zellzahl wurde unter Verwendung eines TOA Sysmex Microzellzählers (TOA, Tokyo, Japan) bestimmt.
(§3) 10^4 Zellen/well wurden in Mikrotiterplatten mit 96 Vertiefungen (100 µl Medium) verteilt und die zu testenden Verbindungen wurden in einem weiteren Volumen von 100 µl hinzugegeben. […]

MDA-MB435 = assay: Chemosensitivity test (modified MTT test EZ4U); conditions: Homo sapiens, MDA-MB-435, 96 h, read-out: IC50-Werte
Text: as §1, §2, §3

BT20 = assay: Chemosensitivity test (modified MTT test EZ4U); conditions: Homo sapiens, BT-20, 96 h, read-out: IC50-Werte
Text: as §1, §2, §3

Bacillus subitilis = assay: Minimal inhibitory concentration (MHK), microtitre plate, TTC staining; assay type: cell-based; conditions: 48h, 36°C
Escherichia coli = assay: as above; assay type: cell-based; conditions: 48h, 36°C
Micrococcus luteus = assay: as above; assay type: cell-based; conditions: 48h, 36°C
[1] = Radical scavenger screening with DPPH radicals (DPPH test); conditions: Konzentrationen 500 und 1000µg/ml
Text: […] die 6 Verbindungen HMF2, HMF-3, CH-1, L5, Q20 und […]. Die […] durch den DPPH-Test ermittelt, wobei sich die UV/VIS-Absorption des freien stabilen […] (Diphenyl-β-picrylhydrazin) in Abhängigkeit vom Zustand von […]. Die Auswertung erfolgt qualitativ (dünnschichtchromatographisch) und quantitativ (photometrisch) mit Ascorbinsäure […] Molyneux P. (2004) The use of the stabel free radical diphenylpicrylhydrazyl (DPPH) for estimating antioxidant activity. Songklanakarin J Sci Technol. 26(2): 211-219).

[2] = test system: Staphylococcus aureus (Stamm ATCC 6538); assay: Mouse ear test (in vivo), antiseptic effect; set-up: key to Keimwachstum (grade): +++: totale Verhinderung des Keimwachstums; ++: Keimwachstum deutlich reduziert aber nicht völlig unterdrückt; conditions: mouse ears infected with S. aureus ATCC 6538; germ count vs infected untreated animal after 18 and 24 h
S. falcium = assay: Minimal inhibitory concentration (MHK), microtitre plate, TTC staining; assay type: cell-based; conditions: 48h, 36°C
CRO2B = assay: Chemosensitivity test (modified MTT test EZ4U); conditions: Homo sapiens, 96 h, read-out: IC50-Werte
Method: as §1
(§4) Die Zellen wurden auf Verunreinigung durch Mycoplasmen untersucht. Das Medium wurde mit 10% hitzeinaktiviertem foetalem Kälberserum (Seromed) and 4 mM Glutamin ergänzt. Die Zellen wurden durch Trypsinierung subkultiviert (0.03% Trypsin enthaltend 0.02% EDTA, dreimal pro Woche). Die Trypsinierung wurde durch Verwendung vom komplettem Zellkulturmedium gestoppt. Die Zellzahl wurde unter Verwendung eines TOA Sysmex Microzellzählers (TOA, Tokyo, Japan) bestimmt.
(§5) 10^4 Zellen/well wurden in Mikrotiterplatten mit 96 Vertiefungen (100 µl Medium) verteilt und die zu testenden Verbindungen wurden in einem weiteren Volumen von 100 µl hinzugegeben. Alle Verbindungen wurden entweder in 3 fixen Konzentrationen eingesetzt (für Tabellen 1-3) oder in 10 Stufen verdünnt unter Verwendung von Zweifachverdünnungsschritten zur Bestimmung der IC50-Werte (dreifache Ansätze, in den meisten Fällen vierfache Ansätze). Die Platten wurden, mit der Ausnahme der Tests zur Untersuchung des Zusammenhangs von Applikationsdauer und Zellreaktion, 4 Tage lang unter Zellkulturbedingungen inkubiert und die Zellviabilität wurde unter Verwendung eines modifizierten MTT Tests bestimmt (Formazan-Farbstoffbildung aus Tetrazoliumsalzen wie MTT, XTT, WST-1 und anderen durch das mitochondriale Reduktionsystem Succinattetrazolium Reductase EC 1.3.99.1.; EZ4U nichtradioaktiver Zellproliferations- und Cytotoxizitätstest, Biomedica, Wien, Österreich; Testmanual unter: www.bmgrp.com). Hierbei wurde die mitochondriale Aktivität und dadurch die Zellviabilität/Zellzahl bestimmt. Kurz gesagt wurde das gelieferte Substrat in einer Aktivatorlösung gelöst und 20 µl der Mischung wurden für 2 Stunden pro Vertiefung hinzugegeben (Gesamtvolumen 200 µl). Die optische Dichte wurde bei 450 nm unter Verwendung einer leeren Vertiefung als Referenz in einem Mikroplattenlesegerät (Eurogenetics, Brüssel, Belgien) bestimmt. Für jede Zell-Line wurden Vertiefungen verwendet um das MTT-Signal der Mediumkontrollen ohne Testsubstanzen zu bestimmen. Die Proliferation in den Test-Vertiefungen wurde in Bezug auf diese Kontrollwerte (100%) errechnet. Die Testergebnisse wurden zwischen 0,3 und 1,5 optischer Dichte für langsam bzw. schnellproliferierende Zellen erfasst. Diese Dosis-Wirkungs-Beziehungen wurden verwendet um die IC50 (Konzentration bei der das Wachstum um 50% gehemmt wird) unter Verwendung von PRISM Scientific Software (GraphPad Inc., San Diego, CA) zu berechnen.

BxPC3 = assay: Chemosensitivity test (modified MTT test EZ4U); conditions: Homo sapiens, BXPC-3, 96 h, read-out: IC50-Werte
Text: as §1, §2, §3

Rhodococcus equi = assay: Minimal inhibitory concentration (MHK), microtitre plate, TTC staining; assay type: cell-based; conditions: 48h, 36°C
Candida albicans = assay: as above; assay type: cell-based; conditions: 48h, 36°C
E. hirae = assay: as above; assay type: cell-based; conditions: 48h, 36°C
Salmonella sp = assay: as above; assay type: cell-based; conditions: 48h, 36°C
Text: Das Inokulum für die Tests wurde durch Verdünnung der Mikroorganismen in wässriger 0,85% NaCI-Lösung hergestellt, die Verdünnung auf die Stufe 0,5 nach McFarland eingestellt und die Konzentration spektrometrisch bei einer Wellenlänge von 580nm überprüft. Die Zellsuspensionen wurden zur Verwendung in den Tests auf 10^4 UFC/ml verdünnt. Die MHK-Tests erfolgten (Vorschrift nach J. N. P. Eloff, Planta Medica, Vol. 64, 1998, p 711-713) in Mikrotiterplatten mit 96 Vertiefungen. Serienverdünnungen der Konzentrationen lagen im Bereich 1,00 - 0,0015 mg/mL. Als Kontrollsubstanzen dienten Chloramphenicol bzw. Nistatin (Merck) in einer Konzentration von 0,062 - 0,005 mg/ml bzw. 0,0125 - 0,001 mg/ml. Das Inokulum (100 µl) wurde in alle Vertiefungen gegeben und die Platten für 48h bei 36°C inkubiert. Die antimikrobielle Aktivität wurde durch Zugabe von 20 µl einer 0,5% igen wässrigen Lösung von TTC (Tetrazoliumchlorid, Merck) pro Vertiefung detektiert. Die minimale Hemmkonzentration (MHK) wird als die niedrigste Konzentration der Verbindung definiert die das sichtbare Wachstum hemmt (durch TTC-Färbung indiziert).

SW620 = assay: Chemosensitivity test (modified MTT test EZ4U); conditions: Homo sapiens, SW-620, 96 h, read-out: IC50-Werte
Method: as §1, §4, §5

Colo205 = assay: Chemosensitivity test (modified MTT test EZ4U); conditions: Homo sapiens, COLO 205, 96 h, read-out: IC50-Werte
Method: as §1, §4, §5

HT29 = assay: Chemosensitivity test (modified MTT test EZ4U); conditions: Homo sapiens, HT-29, 96 h, read-out: IC50-Werte
Text: as §1, §2, §3

CaCo-2 = assay: Chemosensitivity test (modified MTT test EZ4U); conditions: Homo sapiens, Caco-2, 96 h, read-out: IC50-Werte
Method: as §1, §4, §5

MIAPaCa2 = assay: Chemosensitivity test (modified MTT test EZ4U); conditions: Homo sapiens, MIA PaCa-2, 96 h, read-out: IC50-Werte
Method: as §1, §4, §5

S. epidermides = assay: Minimal inhibitory concentration (MHK), microtitre plate, TTC staining; assay type: cell-based; conditions: 48h, 36°C
WI38 = assay: Chemosensitivity test (modified MTT test EZ4U); conditions: Homo sapiens, WI-38, 96 h, read-out: IC50-Werte
Method: as §1, §4, §5

T47D = assay: Chemosensitivity test (modified MTT test EZ4U); conditions: Homo sapiens, T47D, 96 h, read-out: IC50-Werte
Method: as §1, §4, §5

Row | SMILES | MHK-Werte (S. aureus) | MHK-Werte (Bacillus subitilis) | MHK-Werte (Escherichia coli) | MHK-Werte (Micrococcus luteus) | MHK-Werte (S. falcium) | MHK-Werte (Rhodococcus equi) | MHK-Werte (Candida albicans) | MHK-Werte (E. hirae) | MHK-Werte (Salmonella sp) | MHK-Werte (S. epidermides) | other results
1 | COc1cc(/C=C/C(=O)c2ccccc2O)ccc1O [Q20, 3-(4-Hydroxy-3-methoxyphenyl)-1-(2-hydroxyphenyl)-propenon] | 1,0 mg/ml | 0,5 mg/ml | >1,0 mg/ml | 1,0 mg/ml | 0,3 mg/ml | >1,0 mg/ml | 0,3 mg/ml | >1,0 mg/ml | >1,0 mg/ml | 0,5 mg/ml | IC50 (DU 145): 16 µg/mL (≈ 59.2 µM); IC50 (MDA-MB435): 24 µg/mL (≈ 88.8 µM); IC50 (BT20): 33 µg/mL (≈ 122 µM); Radikalfänger-Effekt [1]: 98%; Keimwachstum (grade) [2]: ++; Keimwachstum reduziert auf [2]: 30%; IC50 (CRO2B): 12 µg/mL (≈ 44.4 µM); IC50 (BxPC3): 33 µg/mL (≈ 122 µM); IC50 (SW620): 17 µg/mL (≈ 62.9 µM); IC50 (Colo205): 27 µg/mL (≈ 99.9 µM); IC50 (HT29): 16 µg/mL (≈ 59.2 µM); IC50 (CaCo-2): 12 µg/mL (≈ 44.4 µM); IC50 (MIAPaCa2): 18 µg/mL (≈ 66.6 µM); IC50 (WI38): 8.3 µg/mL (≈ 30.7 µM); IC50 (T47D): 25 µg/mL (≈ 92.5 µM)
2 | COc1cc(/C=C/C(=O)c2ccccc2O)ccc1OCC=C(C)C [Q21, 1-(2-Hydroxyphenyl)-3-[3-methoxy-4-(3-methylbut-2-enyloxy)phenyl]propenon] | >1,0 mg/ml | >1,0 mg/ml | >1,0 mg/ml | >1,0 mg/ml | 0,8 mg/ml | >1,0 mg/ml | 0,6 mg/ml | >1,0 mg/ml | 0,9 mg/ml | >1,0 mg/ml | 
